According to patent US12036212B2, “Enhancement of tumor response to chemotherapy by activation of the asmase/ceramide pathway through timed administration of a short-acting anti-angiogenic agent” (Memorial Sloan-Kettering Cancer Center, priority 2014, dated 2024):

Columns and labels:
[1] = in vivo; cited from earlier work
BAEC = assay: Apoptosis in vitro (Hoechst nuclear staining) in BAEC; format: cell-based, bovine; conditions: BAEC pre-incubated 30 min with bFGF 2 ng/mL, VEGF 2 ng/mL or nystatin 30 μg/mL; etoposide 50 μM, 8 hours
Experimental: Apoptosis was assessed in vitro by examining morphologic changes in nuclear chromatin using bis-benzimide trihydrochloride (Hoechst #33258; Sigma-Aldrich, Milwaukee WI). BAEC and HCAEC monolayer cultures were first detached using 0.25% trypsin and 0.02% EDTA in HBSS and then combined with the floating population of cells. The cell pellet was washed in PBS, resuspended in 3% paraformaldehyde, and incubated for 10 min at 22° C. Following the removal of fixative, cells were resuspended in PBS containing 8 μg/ml of Hoechst-33258. Following a 15-min incubation at 22° C., cells were placed on a glass slide, and scored for the incidence of apoptotic chromatin changes using fluorescence microscope.
Since the ASMase/ceramide pathway is known to play a critical role in endothelial injury and dysfunction, BAEC and HCAEC were treated with paclitaxel (100 nM), etoposide (50 μM), and cisplatin (0.1-50 μM), and endothelial apoptosis was assessed.
To set the basis for experiments involving evaluation of anti-angiogenic therapy in combination with chemotherapy, and the role of ASMase/ceramide pathway in this process, the effects of various factors on the chemotherapy induced cell death were assessed. BAEC were pre-incubated for 30 min with bFGF (2 ng/mL), VEGF (2 ng/mL) or nystatin (30 μg/mL) prior to treatment with etoposide (50 μM), and apoptosis was evaluated after 8 hours using bis-benzamide trihydrochloride staining (FIG. 3).

CRM = CRM detection by confocal microscopy in BAEC; format: cell-based, bovine; conditions: nystatin 30 μg/mL 30 min pre-treatment, paclitaxel 100 nM
Experimental: BAEC were grown on CC2-treated chamber slides (Nalge Nunc International Corp., Naperville, USA) and then exposed to etoposide or paclitaxel with or without pre-incubation with Nystatin (30 μg/ml, Sigma) for 30 min. BAEC were then washed in cold PBS, fixed for 15 min in fresh 2% paraformaldehyde, washed 2× with cold PBS, and blocked with 5% FBS in PBS for 20 min at room temperature. Cells were stained with anti-ceramide MID 15B4 IgM (Alexis Corporation) at 1:50 dilution for 1 hour at room temperature, washed 3× in PBS, and thereafter with Texas Red-conjugated secondary antibody (Jackson Immunoresearch Laboratories, Inc.) at 1:500 dilution for 1 hour at room temperature. Nonspecific fluorescence was excluded using isotype control IgM (BD Biosciences). Cells were washed 3×, stained with DAPI and mounted in 0.1% paraphenylenediamine. Fluorescence was detected using Leica TCS SP2 AOBS 1- and 2-photon laser scanning confocal (DMRXA2 upright stand) microscope coupled with MetaMorph 7.5 (Molecular Devices). Number of CRMs in membranes of endothelial cells was analyzed using MetaMorph 7.5 software that allowed outlining of regions containing CRMs based on two criteria: 1) CRM size (≥500 nm); 2) Intensity of ceramide staining. Mice: asmase^+/+ and asmase^−/− mice, maintained in a SCID background, were propagated using heterozygous breeding pairs and genotyped as previously described (Santana et al. Cell, 86, 189-199, 1996; Grassme et al. Nat Med 9, 322-330 (2003). 6-12 week-old C57BL6/SV129 male mice, purchased from The Jackson Laboratory (Bar Harbor).
To test the effect of chemotherapy on ASMase signaling and ceramide production, BAEC were treated with paclitaxel (100 nM) and ASMase activity was determined by radioenzymatic assay (Rotolo et al, infra) using [^14C-methylcholine] sphingomyelin (Amersham) as substrate (FIG. 1A). Induction of ASMase activity was observed within 5 minutes after treatment, and the activation continued for 30 minutes. Ceramide generation was monitored using the diacylglycerol kinase assay (Stancevic et al. PLoS ONE 8, e69025, 2013). […]

Cc1[nH]c(/C=C2\C(=O)Nc3ccccc32)c(C)c1CCC(=O)O [SU6668]
Average half-life [1]: 3.6 h

CNC(=O)c1ccccc1Sc1ccc2c(/C=C/c3ccccn3)n[nH]c2c1 [axitinib]
Average half-life [1]: 2.5 to 6 h

COc1cc2nccc(Oc3ccc(NC(=O)C4(C(=O)Nc5ccc(F)cc5)CC4)cc3)c2cc1OC [cabozantinib]
Average half-life [1]: 55 h

COc1cc2c(Oc3ccc4[nH]c(C)cc4c3F)ncnc2cc1OCCCN1CCCC1 [cediranib]
Average half-life [1]: 22 to 27 h

C[C@@H]1[C@H](O)[C@@H](C)/C=C/C=C/CC/C=C/C=C/C=C/C=C/C(O[C@H]2O[C@H](C)[C@@H](O)[C@H](N)[C@@H]2O)CC2O[C@](O)(CC(O)C(O)CCC(O)CC(O)CC(O)CC(=O)O[C@H]1C)CC(O)C2C(=O)O (some centres unmarked) [nystatin]
Effect on etoposide-induced apoptosis (BAEC): substantially inhibits etoposide-induced apoptosis
Effect on paclitaxel-induced CRM formation (CRM): prevented the formation of CRMs

Cc1ccc(Nc2nccc(N(C)c3ccc4c(C)n(C)nc4c3)n2)cc1S(N)(=O)=O [pazopanib]
Average half-life [1]: about 30 hours

Cc1ccc(C(=O)Nc2ccc(CN3CCN(C)CC3)c(C(F)(F)F)c2)cc1C#Cc1cnc2cccnn12 [ponatinib]
Average half-life [1]: 24 h

CNC(=O)c1cc(Oc2ccc(NC(=O)Nc3ccc(Cl)c(C(F)(F)F)c3)cc2)ccn1 [sorafenib]
Average half-life [1]: 25 to 48 h

CCN(CC)CCNC(=O)c1c(C)[nH]c(/C=C2\C(=O)Nc3ccc(F)cc32)c1C [sunitinib]
Average half-life [1]: 40 to 60 h

Clc1ccc(Nc2nnc(Cc3ccncc3)c3ccccc23)cc1 [vatalanib]
Average half-life [1]: 4.7 h

VEGF
Effect on etoposide-induced apoptosis (BAEC): substantially inhibits etoposide-induced apoptosis

anginex
Half-life [1]: ~0.833 h

bFGF: basic fibroblast growth factor, pro-angiogenic factor
Effect on etoposide-induced apoptosis (BAEC): substantially inhibits etoposide-induced apoptosis
